From patent US20240270751A1, “Pyrazolopyridinone Compounds” (BeiGene Ltd., priority 2021, published 2024)

Assays:
DGKα = DGKα (Homo sapiens (Human), UniProt P23743); test: Biochemical DGK IC50 assay, DGKα ADP-Glo assay; settings: 7.5 nM enzyme, 140 μM ATP, 80 μM DAG
In short: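 ADP-Glo read-out with full-length DGKα on DAG/PS lipid micelle substrate in 25 mM HEPES pH 7.0, 0.5 mM EDTA, 160 mM octyl β-D-glucopyranoside. Compound final concentrations spanned 1.55˜10000 nM or 23.3˜150000 nM.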

DGKζ = DGKζ (Homo sapiens (Human), UniProt Q13574); test: Biochemical DGK IC50 assay, DGKζ ADP-Glo assay; settings: 0.5 nM enzyme, 140 μM ATP, 80 μM DAG; read-out: DGKζ ADP-Glo assay IC50
Chain of DGKζ (Q13574 other isoform, or with tags, fused parts or gaps): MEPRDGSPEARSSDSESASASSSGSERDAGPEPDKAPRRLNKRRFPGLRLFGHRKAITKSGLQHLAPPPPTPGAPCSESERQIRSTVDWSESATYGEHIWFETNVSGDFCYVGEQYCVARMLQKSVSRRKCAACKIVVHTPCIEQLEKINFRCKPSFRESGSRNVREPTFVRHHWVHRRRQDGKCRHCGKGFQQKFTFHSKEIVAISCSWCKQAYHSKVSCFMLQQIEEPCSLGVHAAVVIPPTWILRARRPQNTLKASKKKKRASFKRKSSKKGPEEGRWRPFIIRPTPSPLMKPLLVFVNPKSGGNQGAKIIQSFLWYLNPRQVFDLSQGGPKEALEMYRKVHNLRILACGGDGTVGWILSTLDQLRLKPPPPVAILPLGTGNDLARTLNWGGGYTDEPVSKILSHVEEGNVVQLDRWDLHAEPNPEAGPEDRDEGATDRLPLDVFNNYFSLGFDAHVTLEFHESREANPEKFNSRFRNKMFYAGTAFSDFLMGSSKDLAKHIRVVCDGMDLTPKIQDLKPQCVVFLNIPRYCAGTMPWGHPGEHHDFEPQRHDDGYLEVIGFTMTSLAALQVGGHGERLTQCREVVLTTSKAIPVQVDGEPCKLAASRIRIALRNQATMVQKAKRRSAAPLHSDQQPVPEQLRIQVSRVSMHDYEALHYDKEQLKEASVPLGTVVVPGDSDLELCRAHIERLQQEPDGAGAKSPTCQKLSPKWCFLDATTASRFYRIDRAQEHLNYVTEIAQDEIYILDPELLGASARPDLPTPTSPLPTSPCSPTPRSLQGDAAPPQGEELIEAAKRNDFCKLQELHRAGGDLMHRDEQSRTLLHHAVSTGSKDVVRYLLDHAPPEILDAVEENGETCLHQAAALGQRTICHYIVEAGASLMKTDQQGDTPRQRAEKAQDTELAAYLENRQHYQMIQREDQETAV
In short: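 Full-length human DGKζ, His-TEV tagged and purified from baculovirus-infected Sf9 cells, assayed by ADP-Glo with DAG/PS lipid micelle substrate prepared in 25 mM HEPES pH 7.0 with octyl glucoside. Final compound concentrations spanned 1.55–10000 nM or 23.3–150000 nM.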

Chain of DGKα (P23743 whole entry): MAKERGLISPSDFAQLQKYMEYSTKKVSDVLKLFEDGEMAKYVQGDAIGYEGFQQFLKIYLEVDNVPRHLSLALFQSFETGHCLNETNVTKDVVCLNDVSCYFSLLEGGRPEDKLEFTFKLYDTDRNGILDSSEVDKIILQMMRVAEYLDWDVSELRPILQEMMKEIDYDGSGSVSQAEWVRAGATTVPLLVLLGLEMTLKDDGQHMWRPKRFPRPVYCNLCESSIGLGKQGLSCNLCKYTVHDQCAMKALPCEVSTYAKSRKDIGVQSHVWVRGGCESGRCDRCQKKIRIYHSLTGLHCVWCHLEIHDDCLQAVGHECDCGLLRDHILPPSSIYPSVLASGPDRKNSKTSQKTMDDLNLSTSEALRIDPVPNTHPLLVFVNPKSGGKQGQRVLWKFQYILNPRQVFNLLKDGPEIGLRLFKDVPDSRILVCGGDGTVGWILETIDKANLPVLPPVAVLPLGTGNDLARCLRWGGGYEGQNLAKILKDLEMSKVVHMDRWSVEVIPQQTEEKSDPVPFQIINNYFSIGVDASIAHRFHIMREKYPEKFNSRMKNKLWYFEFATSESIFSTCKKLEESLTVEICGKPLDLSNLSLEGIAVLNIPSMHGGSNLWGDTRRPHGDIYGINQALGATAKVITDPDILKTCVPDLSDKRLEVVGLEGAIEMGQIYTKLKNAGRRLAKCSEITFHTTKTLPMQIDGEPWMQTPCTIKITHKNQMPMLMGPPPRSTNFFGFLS

| Structure (SMILES) | IC50 (DGKα) [nM] | IC50 (DGKζ) [nM] |
| --- | --- | --- |
| C=CCn1cc2c(n1)c(N1C[C@@H](C)N([C@@H](C)c3ccc4ncc(C)nc4c3)C[C@@H]1C)cc(=O)n2C [Compound A301, 2-allyl-7-((2S,5R)-2,5-dimethyl-4-((S)-1-(3-methylquinoxalin-6-yl)ethyl)piperazin-1-yl)-4-methyl-2,4-dihydro-5H-pyrazolo[4,3-b]pyridin-5-one] | > 150000 | 131 |
| Cc1cnc2ccc(N(C)C3CC(C)N(c4cc(=O)n(C)c5cn(CC#N)nc45)CC3C)cc2n1 (centres unmarked) [Compound A298, 2-(7-(2,5-dimethyl-4-(methyl(3-methylquinoxalin-6-yl)amino)piperidin-1-yl)-4-methyl-5-oxo-4,5-dihydro-2H-pyrazolo[4,3-b]pyridin-2-yl)acetonitrile] | > 150000 | 8910 |
| CC[C@H]1CN(C(C)c2ccc(C)c(C)n2)[C@H](CC)CN1c1cc(=O)n(C)c2cn(CC#N)nc12 (some centres unmarked) [Compound A363] | 166 | 55 |
| CC[C@H]1CN(C(C)c2ccc3c(n2)OCC3)[C@H](CC)CN1c1cc(=O)n(C)c2cn(CC#N)nc12 (stereo partly drawn) [Compound A337, 2-(7-((2S,5R)-4-(1-(2,3-dihydrofuro[2,3-b]pyridin-6-yl)ethyl)-2,5-diethylpiperazin-1-yl)-4-methyl-5-oxo-4,5-dihydro-2H-pyrazolo[4,3-b]pyridin-2-yl)acetonitrile] | 203 | 283 |
| CC#CCn1cc2c(n1)c(N1C[C@@H](CC)N(C(C)c3ccc4c(c3)OC(F)(F)O4)C[C@@H]1C)cc(=O)n2C (single isomer, unassigned) [Compound A392a] | 1320 | 1480 |
| CC#CCn1cc2c(n1)c(N1C[C@@H](CC)N(C(C)c3ccc(F)cc3C(F)(F)F)C[C@@H]1CC)cc(=O)n2C (single isomer, unassigned) [Compound A238b] | 1240 | 256 |
| CC[C@H]1CN(C(C)c2ncc(C)cc2F)[C@H](CC)CN1c1cc(=O)n(C)c2cn(CC#N)nc12 (some centres unmarked) [Compound A359] | 117 | 299 |
| CC[C@H]1CN(C(C)c2ccc(Cl)cn2)[C@H](CC)CN1c1cc(=O)n(C)c2cn(CC#N)nc12 (single isomer, unassigned) [Compound A360a] | 142 | 3800 |
| CC[C@H]1CN(C(C)c2ccc3nccnc3c2)[C@H](CC)CN1c1cc(=O)n(CC2CC2)c2cn(CC#N)nc12 (some centres unmarked) [Compound A167] | > 10000 | 1020 |
| CC[C@H]1CN(C(C)c2ccc(C)nn2)[C@H](CC)CN1c1cc(=O)n(C)c2cn(CC#N)nc12 (some centres unmarked) [Compound A365] | 794 | 4710 |
| COC1(c2cc(F)ccc2C(C)N2C[C@H](C)N(c3cc(=O)n(C)c4cn(CC#N)nc34)C[C@H]2C)CC1 (stereo partly drawn) [Compound A329, 2-(7-((2S,5R)-4-(1-(4-fluoro-2-(1-methoxycyclopropyl)phenyl)ethyl)-2,5-dimethylpiperazin-1-yl)-4-methyl-5-oxo-4,5-dihydro-2H-pyrazolo[4,3-b]pyridin-2-yl)acetonitrile] | > 150000 | 91 |
| CC[C@H]1CN(C(C)c2ccc(F)cn2)[C@H](CC)CN1c1cc(=O)n(C)c2cn(CC#N)nc12 (single isomer, unassigned) [Compound A74a] | 2.2 | 224 |
| COc1cnc2cc(C(C)N3C[C@H](C)N(c4cc(=O)n(C)c5cn(CC#N)nc45)C[C@H]3C)ccc2n1 (stereo partly drawn) [Compound A283, 2-(7-((2S,5R)-4-(1-(2-methoxyquinoxalin-6-yl)ethyl)-2,5-dimethylpiperazin-1-yl)-4-methyl-5-oxo-4,5-dihydro-2H-pyrazolo[4,3-b]pyridin-2-yl)acetonitrile] | 12400 | 881 |
| CC(c1ccc2ncc(C(C)(F)F)nc2c1)N1C[C@H](C)N(c2cc(=O)n(C)c3cn(CC#N)nc23)C[C@H]1C (stereo partly drawn) [Compound A312, 2-(7-((2S,5R)-4-(1-(3-(1,1-difluoroethyl)quinoxalin-6-yl)ethyl)-2,5-dimethylpiperazin-1-yl)-4-methyl-5-oxo-4,5-dihydro-2H-pyrazolo[4,3-b]pyridin-2-yl)acetonitrile] | 66000 | 238 |
| C[C@@H]1CN(c2cc(=O)n(C)c3c(Cl)n(CC#N)nc23)[C@@H](C)CN1[C@H](C)c1ccc2nccnc2c1 [Compound A263, 2-(3-chloro-7-((2S,5R)-2,5-dimethyl-4-((R)-1-(quinoxalin-6-yl)ethyl)piperazin-1-yl)-4-methyl-5-oxo-4,5-dihydro-2H-pyrazolo[4,3-b]pyridin-2-yl)acetonitrile, or 2-(3-chloro-7-((2S,5R)-2,5-dimethyl-4-((S)-1-(quinoxalin-6-yl)ethyl)piperazin-1-yl)-4-methyl-5-oxo-4,5-dihydro-2H-pyrazolo[4,3-b]pyridin-2-yl)acetonitrile] | 41800 | 85 |
| CC[C@H]1CN(C(C)c2c(F)cccc2F)[C@H](CC)CN1c1cc(=O)n(C)c2cn(CC#N)nc12 (some centres unmarked) [Compound A83] | 81 | 170 |
| CC[C@H]1CN(C(C)c2ccc3nccnc3c2)[C@H](CC)CN1c1cc(=O)n(CC(F)F)c2cn(CC#N)nc12 (single isomer, unassigned) [Compound A139b] | > 10000 | 5740 |

| Structure (SMILES) | IC50 (DGKα) [nM] | IC50 (DGKζ) [nM] |
| --- | --- | --- |
| CC[C@H]1CN(C(C)c2ccccn2)[C@H](CC)CN1c1cc(=O)n(C)c2cn(CC#N)nc12 (some centres unmarked) [Compound A90] | 13 | 1900 |
| CCS(=O)(=O)N1CC(CC#N)(n2cc3c(n2)c(N2C[C@@H](C)N(C(C)c4ccc5nccnc5c4)C[C@@H]2C)cc(=O)n3C)C1 (stereo partly drawn) [Compound A19, 2-(3-(7-((2S,5R)-2,5-dimethyl-4-(1-(quinoxalin-6-yl)ethyl)piperazin-1-yl)-4-methyl-5-oxo-4,5-dihydro-2H-pyrazolo[4,3-b]pyridin-2-yl)-1-(ethylsulfonyl)azetidin-3-yl)acetonitrile] | > 150000 | 24000 |
| CC[C@H]1CN(C(C)c2ccc(F)cc2C#N)[C@H](CC)CN1c1cc(=O)n(C)c2cn(CC#N)nc12 (single isomer, unassigned) [Compound A224a] | 1090 | 122 |
| [2H]C([2H])([2H])n1c(=O)cc(N2C[C@@H](C)N(C(C)c3ccc(F)cc3C(F)(F)F)C[C@@H]2C)c2nn(CC#N)cc21 (stereo partly drawn) [Compound A257, 2-(7-((2S,5R)-4-(1-(4-fluoro-2-(trifluoromethyl)phenyl)ethyl)-2,5-dimethylpiperazin-1-yl)-4-(methyl-d3)-5-oxo-4,5-dihydro-2H-pyrazolo[4,3-b]pyridin-2-yl)acetonitrile] | > 10000 | 652 |
| CC[C@H]1CN(C2CCc3ccccc32)[C@H](CC)CN1c1cc(=O)n(C)c2cn(CC#N)nc12 (single isomer, unassigned) [Compound A149b] | 191 | 2250 |
| CC(c1ccc2c(c1)OCCO2)N1C[C@H](C)N(c2cc(=O)n(C)c3cn(CC#N)nc23)C[C@H]1C (some centres unmarked) [Compound A43] | 2900 | 65 |
| CC[C@H]1CN(C(C)c2ncc(OC(F)(F)F)cc2F)[C@H](CC)CN1c1cc(=O)n(C)c2cn(CC#N)nc12 (single isomer, unassigned) [Compound A362a] | 922 | 2510 |
| CC[C@@H]1CN(c2cc(=O)n(C)c3cn(CC(F)F)nc23)[C@@H](C)CN1C(C)c1ccc2nccnc2c1 (single isomer, unassigned) [Compound A222b] | 7420 | > 10000 |
| CC[C@H]1CN(C(C)c2ccc(C(F)(F)F)cc2F)[C@H](CC)CN1c1cc(=O)n(C)c2c[nH]nc12 (single isomer, unassigned) [Compound A231b] | 303 | > 10000 |
| CC[C@@H]1CN(c2cc(=O)n(C)c3cn(CC#N)nc23)[C@@H](C)CN1C(C)c1ccc2nccnc2c1 (single isomer, unassigned) [Compound A97b] | 5120 | 1610 |
| CC(c1ccc(F)cc1P(C)(C)=O)N1C[C@H](C)N(c2cc(=O)n(C)c3cn(CC#N)nc23)C[C@H]1C (some centres unmarked) [Compound A285] | > 10000 | > 10000 |
| CC[C@H]1CN(C(C)c2ccc(CN3CCOCC3)cc2)[C@H](CC)CN1c1cc(=O)n(C)c2cn(CC#N)nc12 (single isomer, unassigned) [Compound A383a] | 245 | 158 |
| Cc1nc2cc(C(C)N3C[C@H](C)N(c4cc(=O)n(C)c5cn(CC#N)nc45)C[C@H]3C)ccc2s1 (some centres unmarked) [Compound A320] | 11600 | 159 |
| CC(c1ccc2nccnc2c1)N1C[C@H](CC#N)N(c2cc(=O)n(C)c3cn(CC#N)nc23)C[C@H]1C (stereo partly drawn) [Compound A158, 2-((2S,5R)-1-(2-(cyanomethyl)-4-methyl-5-oxo-4,5-dihydro-2H-pyrazolo[4,3-b]pyridin-7-yl)-5-methyl-4-(1-(quinoxalin-6-yl)ethyl)piperazin-2-yl)acetonitrile] | > 10000 | 381 |
| CC(c1ccc2nccnc2c1)N1C[C@H](C)N(c2cc(=O)n(C)c3cn(CC4CC4)nc23)C[C@H]1C (some centres unmarked) [Compound A10] | 110000 | 18000 |
| CC[C@H]1CN(C(C)c2ccc3cc(C)ncc3c2)[C@H](CC)CN1c1cc(=O)n(C)c2cn(CC#N)nc12 (some centres unmarked) [Compound A366] | 366 | 644 |
| COc1c(N2C[C@@H](C)N([C@@H](C)c3ccc4nccnc4c3)C[C@@H]2C)c2nn(CC#N)cc2n(C)c1=O [Compound A274, 2-(7-((2S,5R)-2,5-dimethyl-4-((S)-1-(quinoxalin-6-yl)ethyl)piperazin-1-yl)-6-methoxy-4-methyl-5-oxo-4,5-dihydro-2H-pyrazolo[4,3-b]pyridin-2-yl)acetonitrile] | > 10000 | > 10000 |
